Measured values published in patent US4389394A, “Methods for reducing dental caries” (Talres Development (N.A.) N.V., priority 1978, dated 1983).

Columns and labels:
[1] = West German Offenlegungsschrift No. 2700036; cited from earlier work
S. mutans [2] = experiment: (D) Further tests on adherence to teeth; format: cell-based, Streptococcus mutans; details: for adherence of the cells: statement in words; for % coverage after 0.5 hours / % coverage after 4 hours: glass slide, 0.055 molar, Duncan procedure
Experimental: The extent to which cells of S. mutans adhere to teeth was investigated using a recognized model system. Solutions of the same substances as in (A) were made up, and the degree of deposition of suspended cells on to glass was studied using a "Magiscan" image analyser (Talyer et al., 1978 Praktischen Metallographie, Sonderbande 8: 433-442).
While recording the pH during the tests of (C), the adherence was monitored in the same way as in (B). The percentage coverage of a glass slide was determined at 0.5 and 4 hours for each solution, and the results treated by the Duncan procedure.

S. mutans [3] = experiment: (C) Further tests on pH reduction; format: cell-based, Streptococcus mutans; details: for Mean pH: 0.055 molar chlorodeoxy derivative, pooled data for 2, 3 and 4 hours, Duncan procedure
Experimental: Plain aqueous solutions were used and also solutions containing amino acids (protein hydrolysate) 1% w/v to approximate the buffering effect of natural saliva. Control experiments were effected using no saccharide in order to illustrate the endogenous metabolism of the organism. Each experiment was quadruplicated and was run at 37° C. The pH was measured at 0, 0.5, 1, 1.5,2, 3 and 4 hours.
Twelve sets of tests were carried out in the same way as described above at (A) but using solutions which were 0.055 molar in the respective chlorodeoxy derivative.
Solutions of the following were employed:
(i) Saline, negative control for endogenous metabolism
(ii) Sucrose, positive control
(iii) 6,1',6'-trichloro-6,1',6'-trideoxysucrose, compound no. 7.
(iv) Compound no. 7 plus sucrose.
(v) 1',6'-dichloro-1',6'-dideoxysucrose, compound no. 4
(vi) Compound no. 4 plus sucrose
(vii) 4,1',6'-trichloro-4,1',6'-trideoxygalactosucrose, Compound no. 5.
(viii) Compound no. 5 plus sucrose
(ix) 4,6,6'-trichloro-4,6,6'-trideoxygalactosucrose, Compound no. 6
(x) Compound no. 6 plus sucrose
(xi) 1'-chloro-1'-deoxysucrose, compound no. 1
(xii) Compound no. 1 plus sucrose
The acid production was monitored as before.

[4] = 0.5 hours, in the presence of sucrose

## O[C@@H]1[C@@H](O)[C@@H](O[C@]2(CCl)O[C@H](CCl)[C@@H](O)[C@@H]2O)O[C@H](CCl)[C@H]1O [Compound no. 7, 6,1',6'-trichloro-6,1',6'-trideoxysucrose]
[1]
  sweetness relative to sucrose: many times sweeter than sucrose
S. mutans [2]; [4]
  adherence of the cells: most active compounds at 0.5 hours
S. mutans [2]; 4 hours
  adherence of the cells: the most active
S. mutans [2]
  % coverage after 0.5 hours: 29.7%
  % coverage after 4 hours: 54.2%
S. mutans [3]
  Mean pH: 6.48
S. mutans [3]; statement in words, pooled 2, 3 and 4 hours
  effect on acid production / pH: especially effective

## OC[C@@]1(O[C@H]2O[C@H](CCl)[C@H](Cl)[C@H](O)[C@H]2O)O[C@H](CCl)[C@@H](O)[C@@H]1O [Compound no. 6, 4,6-dichloro-4,6-dideoxy-α-D-galactopyranosyl-6-chloro-6-deoxy-β-D-fructofuranoside]
[1]
  sweetness relative to sucrose: do not possess such strong sweetening action
S. mutans [2]
  % coverage after 0.5 hours: 51.6%
  % coverage after 4 hours: 70.8%
S. mutans [3]
  Mean pH: 5.20

## OC[C@H]1O[C@@](CCl)(O[C@H]2O[C@H](CO)[C@H](Cl)[C@H](O)[C@H]2O)[C@@H](O)[C@@H]1O [compound 3, 4-chloro-4-deoxy-α-D-galactopyranosyl-1-chloro-1-deoxy-β-D-fructofuranoside]
[1]
  sweetness relative to sucrose: many times sweeter than sucrose

## O[C@@H]1[C@@H](O)[C@@H](O[C@]2(CCl)O[C@H](CCl)[C@@H](O)[C@@H]2O)O[C@H](CCl)[C@@H]1Cl [compound 8, 4,6-dichloro-4,6-dideoxy-α-D-galactopyranosyl-1,6-dichloro-1,6-dideoxy-β-D-fructofuranoside]
[1]
  sweetness relative to sucrose: many times sweeter than sucrose

## OC[C@H]1O[C@@](CO)(O[C@H]2O[C@H](CO)[C@H](Cl)[C@H](O)[C@H]2O)[C@@H](O)[C@@H]1O [compound 2, 4-chloro-4-deoxy-α-D-galactopyranosyl-β-D-fructofuranoside]
[1]
  sweetness relative to sucrose: do not possess such strong sweetening action

## O[C@@H]1[C@@H](O)[C@@H](O[C@]2(CCl)O[C@H](CCl)[C@@H](O)[C@@H]2O)O[C@H](CCl)[C@H]1Cl [compound 9, 4,6,1',6'-tetrachloro-4,6,1',6'-tetradeoxysucrose]
[1]
  sweetness relative to sucrose: many times sweeter than sucrose

## OC[C@H]1O[C@@](CCl)(O[C@H]2O[C@H](CO)[C@@H](O)[C@H](O)[C@H]2O)[C@@H](O)[C@@H]1O [Compound no. 1, 1'-chloro-1'-deoxysucrose]
[1]
  sweetness relative to sucrose: do not possess such strong sweetening action
S. mutans [2]; [4]
  adherence of the cells: most active compounds at 0.5 hours
S. mutans [2]; 4 hours
  adherence of the cells: the most active
S. mutans [2]
  % coverage after 0.5 hours: 35.6%
  % coverage after 4 hours: 52.3%
S. mutans [3]
  Mean pH: 5.09

## OC[C@H]1O[C@H](O[C@]2(CCl)O[C@H](CCl)[C@@H](O)[C@@H]2O)[C@H](O)[C@@H](O)[C@@H]1O [Compound no. 4, 1',6'-dichloro-1',6'-dideoxysucrose]
[1]
  sweetness relative to sucrose: many times sweeter than sucrose
S. mutans [2]; [4]
  adherence of the cells: falling in the sub-set g which includes sucrose itself
S. mutans [2]; 4 hours
  adherence of the cells: did not reduce the adherence
S. mutans [2]
  % coverage after 0.5 hours: 51.6%
  % coverage after 4 hours: 70.3%
S. mutans [3]
  Mean pH: 5.48
